Experimental findings from patent EP4610262A1, “MACROCYCLIC COMPOUND AS CDK9 INHIBITOR AND USE THEREOF” (Artivila Biopharma, priority 2022, dated 2024) are described below.

One assay has as its target CDK9 (Homo sapiens, UniProt P50750). Kind of assay: Inhibition of CDK9 kinase activity (caliper mobility shift assay). In kind it is biochemical. Particulars: for IC50: 10 concentrations from 10 µM, three-fold dilutions; for inhibition at 0.01 µM: compound at 10 nM. Here is the method:
(§1) Compounds were tested at a concentration of 10 nM with detection in duplicate wells, or tested at 10 concentrations starting from 10 µM with three-fold serial dilutions, with detection in duplicate wells.
(§2) The inhibitory effect of the compounds on the activity of CDK9 protein kinase was detected by the caliper mobility shift assay method. 250 nL of the compound at 100-fold final concentration was transferred to a target 384-well-plate with a dispenser Echo 550. A kinase solution at 2.5-fold final concentration was prepared using 1× kinase buffer. 10 µL of the kinase solution at 2.5-fold final concentration was added to the compound well and positive control well respectively. 10 µL of 1× kinase buffer was added to the negative control well. The 384-well plate was centrifuged at 1000 rpm for 30 seconds and incubated at room temperature for 10 minutes. A mixed solution of ATP and kinase substrate at 5/3-fold final concentration was prepared with 1× kinase buffer, and to the 384-well plate was added with 15 µL per well of the mixed solution of ATP and substrate at 5/3-fold final concentration to start the reaction. The plate was centrifuged at 1000 rpm for 30 seconds, shaken to mix evenly, and incubated at room temperature for a corresponding time. 30 µL of detection stopping solution was added to terminate the kinase reaction. The 384-well plate was centrifuged at 1000 rpm for 30 seconds and shaken to mix evenly. The conversion rate was read with Caliper EZ Reader. The percent conversion inhibition rate = (% positive control conversion rate mean - % sample conversion rate / (% positive control conversion rate mean - % negative control conversion rate mean). Among them: negative control wells represent the conversion rate readings of kinase buffer background wells; positive control wells represent the conversion rate readings of wells without inhibition by compound. With the log value of concentration as the x-axis and the percentage inhibition rate as the y-axis, a dose-response curve was fitted using the log (inhibitor) vs. response -Variable slope of the analysis software GraphPad Prism 5 to obtain the IC50 value of each compound on enzyme activity. Calculation formula: y=Bottom + (Top-Bottom)/(1+10^((LogIC50-x) × hillslope)), x: logarithm of inhibitor concentration; y: % inhibition rate.

In another assay the test system is MV-4-11. Kind of assay: CDK9 cell activity assay, cell growth inhibition (CellTiter-Glo, 72 hours). In kind it is cell-based. Particulars: Homo sapiens, MV4-11. Here is the method:
(§3) In the CDK9 cell activity assay, the cell line MV-4-11 was cultured in IMDM culture medium containing 10% fetal bovine serum (containing 100 U/mL penicillin and 0.1 g/L streptomycin); the cell line HCC1187 was cultured in RPMI-1640 culture medium containing 10% fetal bovine serum (containing 100 U/mL penicillin and 0.1 g/L streptomycin); the cell line Mia Paca-2 was cultured in DMEM containing 10% fetal bovine serum and 2.5% horse serum (containing 100 U/mL penicillin and 0.1 g/L streptomycin); and the cell line A375 was cultured in RPMI-1640 culture medium containing 10% fetal bovine serum (containing 100 U/mL penicillin and 0.1 g/L streptomycin). All cells were cultured in an incubator with saturated humidity at 37°C with 5% CO2.
(§4) When MV-4-11 cells, HCC1187 cells, Mia Paca-2 cells, and A375 cells grew to 80%-90% confluence, they were digested with trypsin, resuspended, counted, and diluted to a certain cell density with complete medium. 100 µL of the cells was plated into each well of a 96-well plate, and the complete medium was used as a background control. The cells were cultured overnight in an incubator with saturated humidity at 37°C with 5% CO2. The compounds were diluted with DMSO to a final concentration of 200×. 3 µL of the stock solution of the above compounds in DMSO was added to 197 µL of complete medium, and 50 µL of the compound diluted in the medium was added to the cells of each well. The cells were cultured in an incubator with saturated humidity at 37°C with 5% CO2 for 72 hours. After 72 hours, the culture plates were placed at room temperature for equilibrium. 40 µL of CellTiter-Glo® reagent was added to each well. The plate was mixed evenly on a shaker for 2 minutes to lyse the cells then incubated at room temperature for 60 minutes to stabilize the chemiluminescent signal, and the chemiluminescence was read using a PE EnVision microplate reader. The inhibition rate on cell growth was calculated as % Inh = (DMSO well - compound treatment well) / (DMSO well - background well) x 100, and fitting was performed using GraphPad Prism 5 to obtain the IC50 values against cell growth.
For orientation: Cellular ATP, detected with luciferase, serves as a proxy for viable cell number.

The next assay relates to Mia-Paca-2. The description is as above. In kind it is cell-based. To be noted: Homo sapiens. The protocol:
as §3, §4

The subject of a further assay is A375. The assay is described as above. Particulars: Homo sapiens, A-375. The assay is classed as cell-based. Here is the method: as §3, §4
The next assay concerns HCC1187. Described as above. To be noted: Homo sapiens. In kind it is cell-based. The protocol: as §3, §4
Another assay addresses JAK1 (Homo sapiens, UniProt P23458). Kind of assay: Kinase selectivity, inhibition rate at 10 nM (caliper mobility shift assay). In kind it is biochemical. To be noted: compound at 10 nM. The protocol:
as §1, §2
(§5) According to the description of the above experiment on kinase activity inhibition, some compounds were tested for their selective inhibition rate against the kinases of CDK7, CDK9, JAK1, JAK2, JAK3, ITK, RET, TYK2, and LRRK2 at 10 nM. The results are shown in Table 3 below: (Inhibition rate range: A>50%; B: 25-49%; C: <25%): […]

The target of a further assay is LRRK2 (Homo sapiens, UniProt Q5S007). The description is as above. In kind it is biochemical. Particulars: compound at 10 nM. Here is the method:
as §1, §2, §5

The target in a further assay is JAK2 (Homo sapiens, UniProt O60674). The assay is described as above. The assay is classed as biochemical. Particulars: compound at 10 nM. The protocol: as §1, §2, §5
[1] abbreviates: read-out: Inhibition rate on CDK9 kinase activity.
The mark [2] stands for this setting: selectivity panel Table 3, read-out: Inhibition rate CDK9.

Like-named read-outs stand apart in the source and are kept apart here.

Chain of JAK2 (O60674 whole entry): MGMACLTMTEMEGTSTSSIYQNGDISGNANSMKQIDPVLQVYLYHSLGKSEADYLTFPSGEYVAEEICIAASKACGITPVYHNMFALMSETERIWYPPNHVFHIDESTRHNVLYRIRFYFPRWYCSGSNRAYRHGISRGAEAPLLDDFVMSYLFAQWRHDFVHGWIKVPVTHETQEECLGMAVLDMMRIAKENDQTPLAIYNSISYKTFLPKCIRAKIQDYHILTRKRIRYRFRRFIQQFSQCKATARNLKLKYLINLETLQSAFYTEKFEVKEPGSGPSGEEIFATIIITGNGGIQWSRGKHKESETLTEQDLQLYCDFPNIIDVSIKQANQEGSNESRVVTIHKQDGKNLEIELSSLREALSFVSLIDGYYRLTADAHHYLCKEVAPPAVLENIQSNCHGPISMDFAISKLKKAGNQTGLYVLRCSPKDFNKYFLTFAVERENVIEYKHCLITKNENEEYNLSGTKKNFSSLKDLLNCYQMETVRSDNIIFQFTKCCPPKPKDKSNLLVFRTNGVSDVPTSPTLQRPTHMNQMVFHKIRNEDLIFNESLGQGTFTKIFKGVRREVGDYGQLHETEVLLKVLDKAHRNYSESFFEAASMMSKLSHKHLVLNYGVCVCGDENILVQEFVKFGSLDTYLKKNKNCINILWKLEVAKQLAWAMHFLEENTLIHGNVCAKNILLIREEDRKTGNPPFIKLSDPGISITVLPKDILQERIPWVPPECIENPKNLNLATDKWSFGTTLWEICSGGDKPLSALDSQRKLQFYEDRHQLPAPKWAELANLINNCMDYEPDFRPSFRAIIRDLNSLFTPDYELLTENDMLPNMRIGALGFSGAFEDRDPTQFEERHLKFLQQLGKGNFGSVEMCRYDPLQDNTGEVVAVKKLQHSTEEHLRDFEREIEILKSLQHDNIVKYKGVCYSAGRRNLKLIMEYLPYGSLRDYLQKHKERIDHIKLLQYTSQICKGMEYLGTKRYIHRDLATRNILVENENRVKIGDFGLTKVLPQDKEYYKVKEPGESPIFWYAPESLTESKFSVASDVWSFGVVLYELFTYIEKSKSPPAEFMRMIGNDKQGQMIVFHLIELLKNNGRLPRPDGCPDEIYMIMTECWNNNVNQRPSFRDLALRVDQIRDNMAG
Chain of CDK9 (P50750 whole entry): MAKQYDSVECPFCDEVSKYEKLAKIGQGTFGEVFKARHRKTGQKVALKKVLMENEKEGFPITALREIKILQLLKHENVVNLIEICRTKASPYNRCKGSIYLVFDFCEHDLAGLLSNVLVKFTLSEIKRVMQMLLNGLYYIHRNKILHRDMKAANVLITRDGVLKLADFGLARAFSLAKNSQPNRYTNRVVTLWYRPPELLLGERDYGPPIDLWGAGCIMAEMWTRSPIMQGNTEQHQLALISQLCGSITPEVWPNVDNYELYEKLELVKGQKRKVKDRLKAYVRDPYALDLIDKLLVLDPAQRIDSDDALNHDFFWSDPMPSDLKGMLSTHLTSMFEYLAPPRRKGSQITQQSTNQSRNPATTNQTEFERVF
Chain of CDK9 (O60563 whole entry partner): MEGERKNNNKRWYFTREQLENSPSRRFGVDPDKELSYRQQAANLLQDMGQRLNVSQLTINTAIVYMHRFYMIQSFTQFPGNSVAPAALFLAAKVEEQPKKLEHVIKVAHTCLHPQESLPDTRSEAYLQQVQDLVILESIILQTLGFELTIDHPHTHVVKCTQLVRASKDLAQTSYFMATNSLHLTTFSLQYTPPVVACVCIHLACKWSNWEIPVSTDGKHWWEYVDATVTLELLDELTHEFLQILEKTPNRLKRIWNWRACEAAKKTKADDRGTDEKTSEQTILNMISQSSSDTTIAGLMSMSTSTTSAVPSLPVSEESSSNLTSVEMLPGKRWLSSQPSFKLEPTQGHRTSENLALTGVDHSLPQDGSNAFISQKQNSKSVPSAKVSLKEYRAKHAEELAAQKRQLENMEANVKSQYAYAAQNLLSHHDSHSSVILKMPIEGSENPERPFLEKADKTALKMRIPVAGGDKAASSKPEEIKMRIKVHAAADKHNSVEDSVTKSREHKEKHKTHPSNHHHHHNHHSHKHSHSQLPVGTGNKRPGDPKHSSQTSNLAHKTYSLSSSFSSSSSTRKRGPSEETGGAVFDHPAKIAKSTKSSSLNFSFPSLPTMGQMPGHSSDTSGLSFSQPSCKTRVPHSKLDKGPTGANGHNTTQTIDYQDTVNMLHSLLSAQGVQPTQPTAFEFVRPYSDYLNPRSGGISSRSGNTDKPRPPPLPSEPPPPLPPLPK
Chain of JAK1 (P23458 whole entry): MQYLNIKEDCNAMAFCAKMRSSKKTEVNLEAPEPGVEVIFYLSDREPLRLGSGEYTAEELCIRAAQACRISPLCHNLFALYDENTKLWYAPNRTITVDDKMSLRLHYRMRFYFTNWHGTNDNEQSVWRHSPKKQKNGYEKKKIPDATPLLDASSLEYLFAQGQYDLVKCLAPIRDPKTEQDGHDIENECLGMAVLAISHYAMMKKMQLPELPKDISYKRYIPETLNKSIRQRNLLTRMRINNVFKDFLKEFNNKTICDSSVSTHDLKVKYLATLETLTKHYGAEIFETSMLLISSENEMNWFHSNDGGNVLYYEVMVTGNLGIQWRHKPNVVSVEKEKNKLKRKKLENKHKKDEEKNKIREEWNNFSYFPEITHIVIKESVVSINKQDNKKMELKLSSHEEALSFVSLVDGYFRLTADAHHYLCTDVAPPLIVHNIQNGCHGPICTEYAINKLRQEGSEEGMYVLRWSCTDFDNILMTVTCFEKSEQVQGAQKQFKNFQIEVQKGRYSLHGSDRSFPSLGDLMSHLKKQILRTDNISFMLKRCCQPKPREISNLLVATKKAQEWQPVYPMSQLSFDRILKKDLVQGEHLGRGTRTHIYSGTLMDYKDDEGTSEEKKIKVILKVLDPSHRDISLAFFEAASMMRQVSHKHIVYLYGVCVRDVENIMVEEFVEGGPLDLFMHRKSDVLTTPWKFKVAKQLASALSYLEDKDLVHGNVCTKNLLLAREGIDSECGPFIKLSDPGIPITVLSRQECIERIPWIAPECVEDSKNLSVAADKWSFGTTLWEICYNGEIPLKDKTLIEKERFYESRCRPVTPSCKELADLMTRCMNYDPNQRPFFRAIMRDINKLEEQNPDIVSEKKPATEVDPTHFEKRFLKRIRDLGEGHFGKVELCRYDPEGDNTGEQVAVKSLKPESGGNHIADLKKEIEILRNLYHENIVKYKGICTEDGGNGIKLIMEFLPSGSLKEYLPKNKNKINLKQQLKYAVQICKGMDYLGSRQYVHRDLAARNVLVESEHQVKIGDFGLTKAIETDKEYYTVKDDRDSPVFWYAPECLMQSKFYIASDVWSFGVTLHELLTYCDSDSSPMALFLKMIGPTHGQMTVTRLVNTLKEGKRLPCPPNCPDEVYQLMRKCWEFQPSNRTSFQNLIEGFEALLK

As usually defined, the IC50 is the concentration at which inhibition is half-maximal. The inhibition is the percentage by which the read-out fell short of the control. Regarding `CN1CCCCCNc2nc(ncc2Cl)Nc2cccc(c2)C1` [Compound 10, 1^5-chloro-5-methyl-2,5,11-triaza-1(2,4)-pyrimidina-3(1,3)-benzene cycloundecane], the IC50 at CDK9 is less than 100 nM; in the assay with MV-4-11 it was less than 250 nM; in the assay on Mia-Paca-2, 250 to 1000 nM; in the assay with A375, 250 to 1000 nM; with HCC1187, 1000 to 5000 nM. Moreover, the inhibition at 0.01 µM on CDK9 (setting [1]) is 25 to 49%.
In the case of `Cc1ccc2cc1-c1nc(ncc1Cl)Nc1cccc(c1)NC/C=C\CN2` [Compound 12, (Z)-2^5-chloro-1^6-methyl-3,5,10-triaza-2(4,2)-pyrimidina-1,4(1,3)-dibenzocyclodecane-7-ene], the half-inhibitory concentration (IC50) at CDK9 is less than 100 nM; in the assay on MV-4-11, less than 250 nM; in the assay with Mia-Paca-2, less than 250 nM; in the assay on A375 it was less than 250 nM; in the assay on HCC1187, less than 250 nM. In addition, the inhibition at 0.01 µM was more than 50% on CDK9 (setting [2]); more than 50% on CDK9 (setting [1]); less than 25% at JAK1; less than 25% on LRRK2; less than 25% on JAK2.
As to `N#Cc1cnc2nc1NCCCCCNCc1cccc(c1)N2` [Compound 15, 2,5,11-triaza-1(2,4)-pyrimidina-3(1,3)-benzenacycloundecaphan-1^5-carbonitrile], the IC50 on CDK9 is less than 100 nM. Besides, the inhibition at 0.01 µM at CDK9 (setting [2]) was 25 to 49%; at CDK9 (setting [1]) it was 25 to 49%; on JAK1, less than 25%; on LRRK2, less than 25%; on JAK2, less than 25%.
Take `Clc1cnc2nc1OCCCCCNCc1cccc(c1)N2` [Compound 18, 1^5-chloro-11-oxa-2,5-diaza-1(2,4)-pyrimidina-3(1,3)-benzenacyclodecaphane]: the half-maximal inhibitory concentration (IC50) is less than 100 nM at CDK9 and less than 250 nM with MV-4-11. The inhibition at 0.01 µM on CDK9 (setting [2]) was more than 50%; on CDK9 (setting [1]), more than 50%; at JAK1 it was less than 25%; at JAK2 it was less than 25%.
Consider `Cc1ccc2cc1-c1nc(ncc1Cl)Nc1cnn(c1)CCNCCN2` [Compound 46, (E)-2^5-chloro-1^6-methyl-4^1H-3,7,10-triaza-2(4,2)-pyrimidina-4(4,1)-pyrazola-1(1,3)-benzenacycl odecaphane], for which the results for the IC50 at CDK9, with MV-4-11 and in the assay with HCC1187 were less than 100 nM, 250 to 1000 nM and 250 to 1000 nM, respectively.
